Assays:
[1] = biological target: T1, ΔF508-CFTR (Homo sapiens, UniProt P13569, DEL508-508); test: CFTR cell surface levels using HRP-tagged ΔF508-CFTR expressing CFBE cells, intrinsic corrector capacity; assay type: cell-based; settings: for EC50: read-out: EC50
T1 construct: host or cells: CFBE41o-, doxycycline-inducible
Summary of the method: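 Here the cells express ΔF508-CFTR with horseradish peroxidase inserted in extracellular loop 4, so only rescued channel at the surface gives luminescent signal. Compounds act on their own, 20 h at the reduced temperature of 33 °C; values are percent activity relative to DMSO and a 3 μM corrector.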

[2] = biological target: T1, ΔF508-CFTR; test: CFTR cell surface levels using HRP-tagged ΔF508-CFTR expressing CFBE cells, in the presence of a co-corrector; assay type: cell-based; settings: HRP-tagged ΔF508-CFTR expressing CFBE cells, in the presence of 3 μM co-corrector; for EC50: read-out: EC50
Summary of the method: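 Cells were seeded with 0.5 μg/mL doxycycline and held 68 h at 37 °C. Test compounds plus 3 μM co-corrector (final 0.1% DMSO) were then added for 20 h at 33 °C. Washed cells received HRP substrate, and luminescence was normalized between DMSO and 3 μM co-corrector controls.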

[3] = HRP-tagged ΔF508-CFTR CFBE41o- cells, compounds alone (intrinsic corrector capacity), 20 hours at 33° C., positive control 3 μM corrector
[4] = HRP-tagged ΔF508-CFTR CFBE41o- cells, compounds alone (intrinsic corrector capacity), 20 hours at 33° C.
[5] = HRP-tagged ΔF508-CFTR expressing CFBE cells, intrinsic corrector capacity (no co-corrector), 33° C., 20 hours

T1 sequence (P13569 with tags, fused parts or gaps DEL508-508): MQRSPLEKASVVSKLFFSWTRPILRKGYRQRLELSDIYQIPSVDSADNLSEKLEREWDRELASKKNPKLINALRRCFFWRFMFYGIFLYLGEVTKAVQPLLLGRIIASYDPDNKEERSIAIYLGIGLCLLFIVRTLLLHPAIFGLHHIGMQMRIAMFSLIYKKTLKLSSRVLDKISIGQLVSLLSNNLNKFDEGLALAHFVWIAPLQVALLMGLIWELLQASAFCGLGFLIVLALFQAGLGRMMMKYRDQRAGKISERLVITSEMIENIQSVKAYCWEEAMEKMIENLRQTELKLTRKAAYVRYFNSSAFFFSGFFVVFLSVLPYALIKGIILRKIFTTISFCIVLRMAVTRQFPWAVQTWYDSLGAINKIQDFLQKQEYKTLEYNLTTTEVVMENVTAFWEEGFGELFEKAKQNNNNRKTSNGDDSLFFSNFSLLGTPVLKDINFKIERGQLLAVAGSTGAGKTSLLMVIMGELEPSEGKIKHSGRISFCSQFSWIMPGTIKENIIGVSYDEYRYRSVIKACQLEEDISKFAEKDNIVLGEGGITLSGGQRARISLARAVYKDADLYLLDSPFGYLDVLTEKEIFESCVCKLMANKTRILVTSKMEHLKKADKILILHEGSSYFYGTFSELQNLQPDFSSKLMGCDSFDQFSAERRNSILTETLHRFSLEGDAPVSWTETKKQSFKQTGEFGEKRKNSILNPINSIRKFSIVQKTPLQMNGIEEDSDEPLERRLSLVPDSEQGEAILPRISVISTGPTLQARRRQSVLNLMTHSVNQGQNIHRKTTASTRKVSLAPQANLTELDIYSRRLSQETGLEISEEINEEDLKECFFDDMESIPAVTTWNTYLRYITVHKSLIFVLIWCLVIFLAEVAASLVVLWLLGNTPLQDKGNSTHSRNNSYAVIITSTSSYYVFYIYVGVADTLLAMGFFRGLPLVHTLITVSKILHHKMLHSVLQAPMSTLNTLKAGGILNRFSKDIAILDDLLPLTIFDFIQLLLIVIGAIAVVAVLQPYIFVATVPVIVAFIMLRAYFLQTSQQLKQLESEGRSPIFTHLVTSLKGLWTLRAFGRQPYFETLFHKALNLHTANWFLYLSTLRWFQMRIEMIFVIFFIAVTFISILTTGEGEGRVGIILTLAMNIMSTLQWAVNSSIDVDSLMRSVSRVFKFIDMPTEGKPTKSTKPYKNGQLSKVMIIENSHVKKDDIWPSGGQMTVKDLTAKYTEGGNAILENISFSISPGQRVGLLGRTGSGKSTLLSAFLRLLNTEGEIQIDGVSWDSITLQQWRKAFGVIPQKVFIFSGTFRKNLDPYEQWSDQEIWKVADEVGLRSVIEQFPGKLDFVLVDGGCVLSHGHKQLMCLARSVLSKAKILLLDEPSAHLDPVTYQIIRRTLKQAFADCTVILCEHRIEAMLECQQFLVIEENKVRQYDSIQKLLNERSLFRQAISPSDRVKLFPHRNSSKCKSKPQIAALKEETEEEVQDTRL

Compound	% Activation [1, 3] [%]	EC50 [1, 4] [nM]	% Activation [2] [%]	EC50 [2] [nM]	% Activation [1, 5] [%]	EC50 [1, 5] [nM]
Cc1cccc(-n2nc(C(C)C)c3c(N4CCC(C(F)(F)F)C4)cc(C(=O)O)nc32)c1 (centres unmarked) [compound 215, 1-(3-methylphenyl)-3-(propan-2-yl)-4-[3-(trifluoromethyl)pyrrolidin-1-yl]-1H-pyrazolo[3,4-b]pyridine-6-carboxylic acid]	165.95	1030	347.15	915		
CN(C)c1ccc(-c2cc(C(=O)O)nc3c2c(C2CC2)nn3C2CCCCC2)cn1 [compound 193, 1-cyclohexyl-3-cyclopropyl-4-[6-(dimethylamino)pyridin-3-yl]-1H-pyrazolo[3,4-b]pyridine-6-carboxylic acid]	194.98	633	402.32	425		
CC(C)c1nn(C2CCCN(CC(F)(F)F)C2)c2nc(C(=O)O)cc(-c3ccc(N4CCOCC4)cc3)c12 (centres unmarked) [compound 161, 4-[4-(morpholin-4-yl)phenyl]-3-(propan-2-yl)-1-[1-(2,2,2-trifluoroethyl)piperidin-3-yl]-1H-pyrazolo[3,4-b]pyridine-6-carboxylic acid]	111.83	921	333.87	795		
N#CCN1CC(c2nn(-c3ccccc3)c3nc(C(=O)O)cc(-c4ccc(N5CCOCC5)cc4)c23)C1 [compound 148, 3-[1-(cyanomethyl)azetidin-3-yl]-4-[4-(morpholin-4-yl)phenyl]-1-phenyl-1H-pyrazolo[3,4-b]pyridine-6-carboxylic acid]	79.64	3340	238.75	3340		
COCCN(C)c1ccc(-c2cc(C(=O)O)nc3c2c(C(C)C)nn3-c2cccc(N3CCC3)c2)cn1 [compound 239, 1-[3-(azetidin-1-yl)phenyl]-4-{6-[(2-methoxyethyl)(methyl)amino]pyridin-3-yl}-3-(propan-2-yl)-1H-pyrazolo[3,4-b]pyridine-6-carboxylic acid]	327.55	875	495.85	713		
CC(C)c1nn(-c2ccccc2)c2nc(C(=O)O)cc(-c3cnc(N4CCOCC4)nc3)c12 [compound 79, 4-[2-(morpholin-4-yl)pyrimidin-5-yl]-1-phenyl-3-(propan-2-yl)-1H-pyrazolo[3,4-b]pyridine-6-carboxylic acid]	195.9	697	256.45	5280		
Cc1nn(-c2ccccc2)c2nc(C(=O)O)cc(OCC(F)C3CCOCC3)c12 (centres unmarked) [compound 377, 4-[2-fluoro-2-(oxan-4-yl)ethoxy]-3-methyl-1-phenyl-1H-pyrazolo[3,4-b]pyridine-6-carboxylic acid]	95.185	1670	295.65	1500		
COCCCN1CCN(c2cc(C(=O)O)nc3c2c(C(C)C)nn3-c2ccc(F)cc2)CC1 [compound 776, 1-(4-fluorophenyl)-4-[4-(3-methoxypropyl)piperazin-1-yl]-3-(propan-2-yl)-1H-pyrazolo[3,4-b]pyridine-6-carboxylic acid]			261.4	531	113.2	1670
CC(C)c1nn(-c2ccc(F)cc2)c2nc(C(=O)O)cc(N3CCCN(C(C)C)CC3)c12 [compound 795, 1-(4-fluorophenyl)-3-(propan-2-yl)-4-[4-(propan-2-yl)-1,4-diazepan-1-yl]-1H-pyrazolo[3,4-b]pyridine-6-carboxylic acid]			175.3	1670	47.22	1670
CC(C)c1nn(-c2ccc(F)cc2)c2nc(C(=O)O)cc(N3CC(N4CCOCC4)C3)c12 [compound 765, 1-(4-fluorophenyl)-4-[3-(morpholin-4-yl)azetidin-1-yl]-3-(propan-2-yl)-1H-pyrazolo[3,4-b]pyridine-6-carboxylic acid]			181.3	738	45.48	1670
Cc1ccc(-n2nc(C3CCC3)c3c(-c4ccc(N5CCOCC5)cc4)cc(C(=O)O)nc32)cc1F [compound 355, 3-cyclobutyl-1-(3-fluoro-4-methylphenyl)-4-[4-(morpholin-4-yl)phenyl]-1H-pyrazolo[3,4-b]pyridine-6-carboxylic acid]	180.03	740	360.63	556		
CS(=O)(=O)C1(COc2cc(C(=O)O)nc3c2c(C2CCC2)nn3-c2ccccc2)CCOCC1 [compound 627, 3-cyclobutyl-4-{[4-(methanesulfonyl)oxan-4-yl]methoxy}-1-phenyl-1H-pyrazolo[3,4-b]pyridine-6-carboxylic acid]			126.25	> 10000	9.221	> 10000
CC(=O)N1CC(c2nn(-c3ccccc3)c3nc(C(=O)O)cc(-c4ccc(N5CCOCC5)cc4)c23)C1 [compound 78, 3-(1-acetylazetidin-3-yl)-4-[4-(morpholin-4-yl)phenyl]-1-phenyl-1H-pyrazolo[3,4-b]pyridine-6-carboxylic acid]	10.784	> 10000	132	> 10000		
CCOCCN1CCN(c2cc(C(=O)O)nc3c2c(C2CCC2)nn3-c2ccccc2)CC1 [compound 566, 3-cyclobutyl-4-[4-(2-ethoxyethyl)piperazin-1-yl]-1-phenyl-1H-pyrazolo[3,4-b]pyridine-6-carboxylic acid]			365.3	407	150.5	388
CC(C)c1nn(-c2ccc(F)cc2)c2nc(C(=O)O)cc(N3CC4(CCCOC4)C3)c12 [compound 400, 1-(4-fluorophenyl)-4-(6-oxa-2-azaspiro[3.5]nonan-2-yl)-3-(propan-2-yl)-1H-pyrazolo[3,4-b]pyridine-6-carboxylic acid]			283.65	980	111.35	1350
O=C(O)c1cc(-c2ccc(N3CCOCC3)cc2)c2c(C3CCC3)nn(-c3cccc(C(F)(F)F)c3)c2n1 [compound 354, 3-cyclobutyl-4-[4-(morpholin-4-yl)phenyl]-1-[3-(trifluoromethyl)phenyl]-1H-pyrazolo[3,4-b]pyridine-6-carboxylic acid]	212.07	450	429.9	323		
CN1CCN(CCCOc2cc(C(=O)O)nc3c2c(C2CCC2)nn3-c2ccccc2)CC1 [compound 634, 3-cyclobutyl-4-[3-(4-methylpiperazin-1-yl)propoxy]-1-phenyl-1H-pyrazolo[3,4-b]pyridine-6-carboxylic acid]			294.7	2570	122.2	3330
CC(C)c1nn(-c2ccc(F)cc2)c2nc(C(=O)O)cc(N3CCCN(C)CC3)c12 [compound 769, 1-(4-fluorophenyl)-4-(4-methyl-1,4-diazepan-1-yl)-3-(propan-2-yl)-1H-pyrazolo[3,4-b]pyridine-6-carboxylic acid]			157.2	1580	19.25	5000
CC(C)c1nn(C2CCCCC2)c2nc(C(=O)O)cc(-c3cnn(C(C)C)c3)c12 [compound 361, 1-cyclohexyl-3-(propan-2-yl)-4-[1-(propan-2-yl)-1H-pyrazol-4-yl]-1H-pyrazolo[3,4-b]pyridine-6-carboxylic acid]	80.015	1540	227.65	1160		
Cc1cccc(-n2nc(C(C)C)c3c(N4CC5(CCOCC5)C4)cc(C(=O)O)nc32)c1 [compound 258, 1-(3-methylphenyl)-4-(7-oxa-2-azaspiro[3.5]nonan-2-yl)-3-(propan-2-yl)-1H-pyrazolo[3,4-b]pyridine-6-carboxylic acid]	169.7	1290	364.3	919		
COC(=O)N1CC(c2nn(-c3ccccc3)c3nc(C(=O)O)cc(-c4ccc(N5CCOCC5)cc4)c23)C1 [compound 86, 3-[1-(methoxycarbonyl)azetidin-3-yl]-4-[4-(morpholin-4-yl)phenyl]-1-phenyl-1H-pyrazolo[3,4-b]pyridine-6-carboxylic acid]	129.75	3340	300.25	2550		
O=C(O)c1cc(N2CCC(C(F)CO)CC2)c2c(C3CCC3)nn(-c3ccccc3)c2n1 (centres unmarked) [compound 520, 3-cyclobutyl-4-[4-(1-fluoro-2-hydroxyethyl)piperidin-1-yl]-1-phenyl-1H-pyrazolo[3,4-b]pyridine-6-carboxylic acid]			450.25	241	213.9	583
CC1(COc2cc(C(=O)O)nc3c2c(C2CCC2)nn3-c2ccccc2)CC(F)(F)C1 [compound 476, 3-cyclobutyl-4-[(3,3-difluoro-1-methylcyclobutyl)methoxy]-1-phenyl-1H-pyrazolo[3,4-b]pyridine-6-carboxylic acid]			297.8	386	121.45	513

— patent publication US9796711B2, “Substituted pyrazolo[3,4-b]pyridin-6-carboxylic acids and method of use” (AbbVie S.àr.l., priority 2015, dated 2017)
